The text below walks through data of ChEMBL document CHEMBL5143640, “Diverse Sesquiterpenoids and Polyacetylenes from Atractylodes lancea and Their Anti-Osteoclastogenesis Activity” (J Nat Prod, 2022).

Data set [1] in a line: Anti-osteoclastogensis activity C57BL/6 mouse bone marrow macrophages assessed as inhibition of RANKL-induced osteoclastogenesis and measured after 5 days in presence of M-CSF by TRAP staining based assay. Format: functional, cell-based. The settings on record: bmdm.
In data set [2] the test system is BMDM. The data set can be described thus: Anti-osteoclastogensis activity C57BL/6 mouse bone marrow macrophages assessed as inhibition of RANKL-induced osteoclastogenesis by measuring osteoclasts size at 1 to 10 uM and measured after 5 days in presence of M-CSF by TRAP staining based assay. The settings on record: dose 1-10 µM, time 5.0 day, DDE = dose-dependent effect. The class given is functional, cell-based.

Data set [3] relates to BMDM. Kind of data set: Anti-osteoclastogensis activity C57BL/6 mouse bone marrow macrophages assessed as inhibition of RANKL-induced osteoclastogenesis by measuring osteoclasts number at 1 to 10 uM and measured after 5 days in presence of M-CSF by TRAP staining based assay. The settings on record: dose 1-10 µM, time 5.0 day, DDE = dose-dependent effect. Format: functional, cell-based.

Data set [4] concerns BMDM. The data set can be described thus: Cytotoxicity against C57BL/6 mouse bone marrow macrophages assessed as reduction in cell viability at 10 uM incubated for 48 hrs in presence of M-CSF by CCK8 assay. The class given is toxicity, cell-based.

Each structure is given as a SMILES string.

Consider `CC(=O)OCCC(/C=C/C=C/C#CC#C/C=C/CO)OC(C)=O` (stereo not drawn), for which the IC50 in data set [1] was determined as 1300 nM. Also, the Activity result in data set [2] is “Dde”; in data set [3], “Dde”; in data set [4], “Non-Toxic”.
For the compound `OC/C=C/C#CC#C/C=C/c1ccco1`, in data set [1], the IC50 came out at 640 nM. The Activity entry in data set [2] was “Dde”; in data set [3], “Dde”; in data set [4], “Non-Toxic”.
